Results: patent US20230398130A1, “METHODS AND COMPOSITIONS FOR DIFFERENTIATING STEM CELLS” (Massachusetts Institute of Technology, priority 2020, published 2023)

Legend:
ISC-enriched organoids [1] = test: Primary screen, 384-well 2.5-D organoid differentiation (ENR+CD, 6 days, Target Selective Inhibitor Library, vs whole-plate median): ATP (CellTiter-Glo 3D, CTG); settings: for Dose.FC.CTG (log 2 fold change, ATP): vs plate median; for Dose.FC.CTG / Z.CTG: primary screen; for Dose.FC.CTG: ENR+CD 6 days, FC vs plate median; for Z.CTG: standard z score of FC
ISC-enriched organoids [2] = test: Primary screen, 384-well 2.5-D organoid differentiation (ENR+CD, 6 days): basal lysozyme secretion (LYZ.NS); type: cell-based, murine; settings: for Dose.FC.LYZ.NS (log 2 fold change, basal lysozyme secretion): vs plate median; for Dose.FC.LYZ.NS / Z.LYZ.NS: primary screen; for Dose.FC.LYZ.NS: ENR+CD 6 days, FC vs plate median; for Z.LYZ.NS: standard z score of FC
Description: (§1) High-throughput screening.

ISC-enriched organoids [3] = test: Primary screen, 384-well 2.5-D organoid differentiation (ENR+CD, 6 days): carbachol-induced lysozyme secretion (LYZ.S); type: cell-based, murine; settings: for Dose.FC.LYZ.S (log 2 fold change, carbachol-induced lysozyme secretion): vs plate median; for Dose.FC.LYZ.S: primary screen, ENR+CD 6 days, FC vs plate median
Description: as §1

[4] = dose 0.08 uM (1st of 4 lines per treatment; dose not printed in this part)
[5] = dose 0.40 uM (2nd of 4 lines per treatment; dose not printed in this part)
[6] = dose 2.00 uM (3rd of 4 lines per treatment; dose not printed in this part)
[7] = dose 10.00 uM (4th of 4 lines per treatment; dose not printed in this part)

Cl.N[C@@H]1C[C@H]1c1ccccc1 (racemic) [Tranylcypromine (2-PCPA) HCl]
Z.CTG (standard z score) (ISC-enriched organoids [1]; dose 0.08 uM): −0.153
Dose.FC.CTG (log 2 fold change, ATP) (ISC-enriched organoids [1]; dose 0.08 uM): −0.064
Z.CTG (standard z score) (ISC-enriched organoids [1]; dose 0.40 uM): 0.148
Dose.FC.CTG (log 2 fold change, ATP) (ISC-enriched organoids [1]; dose 0.40 uM): 0.062
Z.CTG (standard z score) (ISC-enriched organoids [1]; dose 2.00 uM): 0.128
Dose.FC.CTG (log 2 fold change, ATP) (ISC-enriched organoids [1]; dose 2.00 uM): 0.053
Z.CTG (standard z score) (ISC-enriched organoids [1]; dose 10.00 uM): −1.274
Dose.FC.CTG (log 2 fold change, ATP) (ISC-enriched organoids [1]; dose 10.00 uM): −0.533
Z.LYZ.NS (standard z score) (ISC-enriched organoids [2]; dose 0.08 uM): 0.285
Dose.FC.LYZ.NS (log 2 fold change, basal lysozyme secretion) (ISC-enriched organoids [2]; dose 0.08 uM): 0.033
Z.LYZ.NS (standard z score) (ISC-enriched organoids [2]; dose 0.40 uM): −0.426
Dose.FC.LYZ.NS (log 2 fold change, basal lysozyme secretion) (ISC-enriched organoids [2]; dose 0.40 uM): −0.049
Z.LYZ.NS (standard z score) (ISC-enriched organoids [2]; dose 2.00 uM): 0.423
Dose.FC.LYZ.NS (log 2 fold change, basal lysozyme secretion) (ISC-enriched organoids [2]; dose 2.00 uM): 0.049
Z.LYZ.NS (standard z score) (ISC-enriched organoids [2]; dose 10.00 uM): −0.389
Dose.FC.LYZ.NS (log 2 fold change, basal lysozyme secretion) (ISC-enriched organoids [2]; dose 10.00 uM): −0.045
Dose.FC.LYZ.S (log 2 fold change, carbachol-induced lysozyme secretion) (ISC-enriched organoids [3]; dose 0.08 uM): 0.050
Dose.FC.LYZ.S (log 2 fold change, carbachol-induced lysozyme secretion) (ISC-enriched organoids [3]; dose 0.40 uM): −0.037
Dose.FC.LYZ.S (log 2 fold change, carbachol-induced lysozyme secretion) (ISC-enriched organoids [3]; dose 2.00 uM): 0.036
Dose.FC.LYZ.S (log 2 fold change, carbachol-induced lysozyme secretion) (ISC-enriched organoids [3]; dose 10.00 uM): −0.096

COc1cc2c(cc1O)CC[C@@H]1[C@@H]2CC[C@]2(C)[C@@H](O)CC[C@@H]12 [2-Methoxyestradiol (2-MeOE2)]
SSMD.CTG_Rep (strictly standardized mean difference) (ISC-enriched organoids [1]; [4]): 0.407
SSMD.CTG_Rep (strictly standardized mean difference) (ISC-enriched organoids [1]; [5]): 0.930
SSMD.CTG_Rep (strictly standardized mean difference) (ISC-enriched organoids [1]; [6]): 0.461
SSMD.CTG_Rep (strictly standardized mean difference) (ISC-enriched organoids [1]; [7]): −0.878
Dose.FC.CTG (ISC-enriched organoids [1]; dose 0.08 uM): 0.299 log 2 fold change
Z.CTG (ISC-enriched organoids [1]; dose 0.08 uM): 0.714
Dose.FC.CTG (ISC-enriched organoids [1]; dose 0.40 uM): 0.401 log 2 fold change
Z.CTG (ISC-enriched organoids [1]; dose 0.40 uM): 0.957
Dose.FC.CTG (ISC-enriched organoids [1]; dose 2.00 uM): 0.227 log 2 fold change
Z.CTG (ISC-enriched organoids [1]; dose 2.00 uM): 0.543
Dose.FC.CTG (ISC-enriched organoids [1]; dose 10.00 uM): −0.672 log 2 fold change
Z.CTG (ISC-enriched organoids [1]; dose 10.00 uM): −1.606
SSMD.LYZ.NS_Rep (strictly standardized mean difference) (ISC-enriched organoids [2]; [4]): 0.077
SSMD.LYZ.NS_Rep (strictly standardized mean difference) (ISC-enriched organoids [2]; [5]): 0.227
SSMD.LYZ.NS_Rep (strictly standardized mean difference) (ISC-enriched organoids [2]; [6]): 0.049
SSMD.LYZ.NS_Rep (strictly standardized mean difference) (ISC-enriched organoids [2]; [7]): −0.826
Dose.FC.LYZ.NS (ISC-enriched organoids [2]; dose 0.08 uM): 0.021 log 2 fold change
Z.LYZ.NS (ISC-enriched organoids [2]; dose 0.08 uM): 0.186
Dose.FC.LYZ.NS (ISC-enriched organoids [2]; dose 0.40 uM): 0.065 log 2 fold change
Z.LYZ.NS (ISC-enriched organoids [2]; dose 0.40 uM): 0.566
Dose.FC.LYZ.NS (ISC-enriched organoids [2]; dose 2.00 uM): 0.005 log 2 fold change
Z.LYZ.NS (ISC-enriched organoids [2]; dose 2.00 uM): 0.041
Dose.FC.LYZ.NS (ISC-enriched organoids [2]; dose 10.00 uM): −0.139 log 2 fold change
Z.LYZ.NS (ISC-enriched organoids [2]; dose 10.00 uM): −1.209
SSMD.LYZ.S_Rep (strictly standardized mean difference) (ISC-enriched organoids [3]; [4]): 1.015
Z.LYZ.S (standard z score) (ISC-enriched organoids [3]; [4]): 1.224
SSMD.LYZ.S_Rep (strictly standardized mean difference) (ISC-enriched organoids [3]; [5]): 0.831
Z.LYZ.S (standard z score) (ISC-enriched organoids [3]; [5]): 1.747
SSMD.LYZ.S_Rep (strictly standardized mean difference) (ISC-enriched organoids [3]; [6]): 0.144
Z.LYZ.S (standard z score) (ISC-enriched organoids [3]; [6]): 0.190
SSMD.LYZ.S_Rep (strictly standardized mean difference) (ISC-enriched organoids [3]; [7]): −1.135
Z.LYZ.S (standard z score) (ISC-enriched organoids [3]; [7]): −1.795
Dose.FC.LYZ.S (ISC-enriched organoids [3]; dose 0.08 uM): 0.189 log 2 fold change
Dose.FC.LYZ.S (ISC-enriched organoids [3]; dose 0.40 uM): 0.270 log 2 fold change
Dose.FC.LYZ.S (ISC-enriched organoids [3]; dose 2.00 uM): 0.029 log 2 fold change
Dose.FC.LYZ.S (ISC-enriched organoids [3]; dose 10.00 uM): −0.278 log 2 fold change

CC(C)N(CC[C@H](c1ccccc1)c1cc(CO)ccc1O)C(C)C [4CE°8C]
SSMD.CTG_Rep (strictly standardized mean difference) (ISC-enriched organoids [1]; [4]): −0.402
SSMD.CTG_Rep (strictly standardized mean difference) (ISC-enriched organoids [1]; [5]): 0.023
SSMD.CTG_Rep (strictly standardized mean difference) (ISC-enriched organoids [1]; [6]): −0.340
SSMD.CTG_Rep (strictly standardized mean difference) (ISC-enriched organoids [1]; [7]): −0.109
Dose.FC.CTG (ISC-enriched organoids [1]; dose 0.08 uM): −0.111 log 2 fold change
Z.CTG (ISC-enriched organoids [1]; dose 0.08 uM): −0.265
Dose.FC.CTG (ISC-enriched organoids [1]; dose 0.40 uM): 0.007 log 2 fold change
Z.CTG (ISC-enriched organoids [1]; dose 0.40 uM): 0.018
Dose.FC.CTG (ISC-enriched organoids [1]; dose 2.00 uM): −0.162 log 2 fold change
Z.CTG (ISC-enriched organoids [1]; dose 2.00 uM): −0.387
Dose.FC.CTG (ISC-enriched organoids [1]; dose 10.00 uM): −0.039 log 2 fold change
Z.CTG (ISC-enriched organoids [1]; dose 10.00 uM): −0.094
SSMD.LYZ.NS_Rep (strictly standardized mean difference) (ISC-enriched organoids [2]; [4]): 0.497
SSMD.LYZ.NS_Rep (strictly standardized mean difference) (ISC-enriched organoids [2]; [5]): 0.226
SSMD.LYZ.NS_Rep (strictly standardized mean difference) (ISC-enriched organoids [2]; [6]): 0.128
SSMD.LYZ.NS_Rep (strictly standardized mean difference) (ISC-enriched organoids [2]; [7]): −0.861
Dose.FC.LYZ.NS (ISC-enriched organoids [2]; dose 0.08 uM): 0.069 log 2 fold change
Z.LYZ.NS (ISC-enriched organoids [2]; dose 0.08 uM): 0.601
Dose.FC.LYZ.NS (ISC-enriched organoids [2]; dose 0.40 uM): 0.047 log 2 fold change
Z.LYZ.NS (ISC-enriched organoids [2]; dose 0.40 uM): 0.413
Dose.FC.LYZ.NS (ISC-enriched organoids [2]; dose 2.00 uM): 0.016 log 2 fold change
Z.LYZ.NS (ISC-enriched organoids [2]; dose 2.00 uM): 0.138
Dose.FC.LYZ.NS (ISC-enriched organoids [2]; dose 10.00 uM): −0.095 log 2 fold change
Z.LYZ.NS (ISC-enriched organoids [2]; dose 10.00 uM): −0.827
SSMD.LYZ.S_Rep (strictly standardized mean difference) (ISC-enriched organoids [3]; [4]): 0.194
Z.LYZ.S (standard z score) (ISC-enriched organoids [3]; [4]): 0.205
SSMD.LYZ.S_Rep (strictly standardized mean difference) (ISC-enriched organoids [3]; [5]): 0.053
Z.LYZ.S (standard z score) (ISC-enriched organoids [3]; [5]): 0.073
SSMD.LYZ.S_Rep (strictly standardized mean difference) (ISC-enriched organoids [3]; [6]): −0.217
Z.LYZ.S (standard z score) (ISC-enriched organoids [3]; [6]): −0.358
SSMD.LYZ.S_Rep (strictly standardized mean difference) (ISC-enriched organoids [3]; [7]): −0.707
Z.LYZ.S (standard z score) (ISC-enriched organoids [3]; [7]): −0.836
Dose.FC.LYZ.S (ISC-enriched organoids [3]; dose 0.08 uM): 0.032 log 2 fold change
Dose.FC.LYZ.S (ISC-enriched organoids [3]; dose 0.40 uM): 0.011 log 2 fold change
Dose.FC.LYZ.S (ISC-enriched organoids [3]; dose 2.00 uM): −0.055 log 2 fold change
Dose.FC.LYZ.S (ISC-enriched organoids [3]; dose 10.00 uM): −0.129 log 2 fold change
